This assay concerns Lactobacillus acidophilus. Nature of the assay: Prebiotic activity in Lactobacillus acidophilus in simulated intestinal fluid after 1 to 3 hrs. In kind it is functional.

Activity calls are given as the source filed them. No cut-off for these calls is given here.

As to `OC[C@H]1O[C@@H](O[C@@H]2[C@H](O)CO[C@](O)(CO)[C@H]2O)[C@H](O)[C@@H](O)[C@H]1O`, the outcome was Active.

In the case of `OC[C@H]1O[C@@H](O[C@H]2[C@H](O)[C@H](O)CO[C@]2(O)CO)[C@H](O)[C@@H](O)[C@H]1O`, the outcome was Active.

Values taken from ChEMBL document CHEMBL3779794, “Efficient synthesis and activity of beneficial intestinal flora of two lactulose-derived oligosaccharides” (Eur J Med Chem, 2016).
